From patent publication EP0341681B1, “6-Phenoxymethyl-4-hydroxytetrahydropyran-2-ones and 6-thiophenoxymethyl-4-hydroxytetrahydropyran-2-ones, the corresponding dihydrocarboxylic-acid derivatives, salts and esters, process for preparing these compounds, their use as medicines, pharmaceutical compositions and phenols and thiophenols” (HOECHST AKTIENGESELLSCHAFT, priority 1988, dated 1989) come the findings set out here.

Assay [1] concerns the target T1, HMG-CoA-Reduktase in HEP G2-Zellkulturen (Homo sapiens, UniProt P04035).
T1 sequence (P04035 1-888): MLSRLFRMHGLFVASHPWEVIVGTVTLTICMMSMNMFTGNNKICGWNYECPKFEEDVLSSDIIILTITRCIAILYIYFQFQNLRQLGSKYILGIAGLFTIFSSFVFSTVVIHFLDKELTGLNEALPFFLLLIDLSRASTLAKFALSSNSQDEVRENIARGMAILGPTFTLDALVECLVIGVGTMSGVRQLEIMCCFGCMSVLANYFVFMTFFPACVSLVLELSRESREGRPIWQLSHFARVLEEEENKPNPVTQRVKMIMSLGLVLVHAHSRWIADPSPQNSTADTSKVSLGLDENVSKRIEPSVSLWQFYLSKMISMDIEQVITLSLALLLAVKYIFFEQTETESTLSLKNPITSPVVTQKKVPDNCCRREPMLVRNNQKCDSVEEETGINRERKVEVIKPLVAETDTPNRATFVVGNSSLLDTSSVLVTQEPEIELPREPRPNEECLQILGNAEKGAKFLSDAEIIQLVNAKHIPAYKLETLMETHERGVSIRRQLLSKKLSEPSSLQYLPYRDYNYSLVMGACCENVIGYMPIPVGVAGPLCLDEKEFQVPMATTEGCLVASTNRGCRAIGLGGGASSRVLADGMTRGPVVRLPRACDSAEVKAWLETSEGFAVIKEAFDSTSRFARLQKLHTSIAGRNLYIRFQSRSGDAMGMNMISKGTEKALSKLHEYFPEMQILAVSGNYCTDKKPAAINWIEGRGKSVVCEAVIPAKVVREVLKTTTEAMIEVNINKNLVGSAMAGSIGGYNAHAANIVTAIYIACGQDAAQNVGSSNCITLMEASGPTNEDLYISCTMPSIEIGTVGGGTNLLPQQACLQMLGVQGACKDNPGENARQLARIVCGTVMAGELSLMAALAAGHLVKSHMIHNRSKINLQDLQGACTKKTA
Nature of the assay: Inhibition of 14C-sodium acetate incorporation into cholesterol in HEP G2 cell cultures. As to conditions: for relative Wirkstärke: Mevinolin-Natrium = 100; for IC70: HepG2, 3 h, read-out: IC₇₀. The format is cell-based. The text has this:
2) Supprimierung bzw. Inhibierung der HMG-CoA-Reduktase in HEP G2-Zellkulturen (einer Human-Hepatoma-Zell-Linie) Es erfolgte eine Bestimmung der Inhibition des Einbaus von ¹⁴C-Natriumacetat in Cholesterin. Monolayers von HEP G2-Zellen in RPMJ 1640 Medium mit 10 % von Lipiden befreitem fötalem Kälberserum wurden 1 Stunde mit verschiedenen Konzentrationen der Natriumsalze der Dihydroxycarbonsäuren der Formel II präinkubiert. Nach Zugabe von ¹⁴C-markiertem Natriumacetat wurde die Inkubation 3 Std. fortgesetzt. Tritium-markiertes Cholesterin wurde als interner Standard zugefügt und ein Aliquot der Zellen alkalisch verseift. Die Lipide wurden mit Chloroform/Methanol 2:1 extrahiert. Nach Zugabe von Carrier-Cholesterin wurde das Lipidgemisch präparativ auf DC-Platten mit Chloroform/Aceton 9:1 getrennt. Die Cholesterin-Zone wurde durch Anfärben mit Joddampf sichtbar gemacht, außerdem mit einem DC-Radioscanner detektiert und dann abgeschabt. Die Menge ¹⁴C-Cholesterin wurde szintigraphisch bestimmt. In einem anderen Aliquot der Zell-Monolayers wurde (zur Berechnung der ¹⁴C-Cholesterinbiosynthese pro mg Zell-Protein) das Zellprotein gemessen. Dieselbe Prozedur wurde mit Zellen der gleichen Kultur ohne Präinkubation mit einer Testverbindung durchgeführt (sogenannte "Lösungsmittelkontrolle"). Die Wirkstärke der Testverbindungen wurde bestimmt durch Vergleich des biosynthetisierten ¹⁴C-Cholesterins in Testläufen und bei "Lösungsmittelkontrolle". Die Wirkstärke wurde auf der Basis von Mevinolin-Natriumsalz als externer Standard berechnet. […] Die gemessenen IC's für Testverbindungen (Natriumsalze der Dihydroxycarbonsäuren der Formel II) (Tab. 2) wurden um die Abweichung von Mevinolin-Natrium von seinem Durchschnittswert korrigiert. Mevinolin-Natrium wurde eine relative Wirkstärke von 100 zugewiesen.

A further assay has as its target T2, HMG-CoA-Reduktase (Rattus norvegicus, UniProt P51639).
T2 construct: solubilisierten Enzympräparationen aus Ratten-Lebermikrosomen; from tissue; host or cells: rat liver microsomes (cholestyramine-induced rats)
T2 sequence (P51639 1-887): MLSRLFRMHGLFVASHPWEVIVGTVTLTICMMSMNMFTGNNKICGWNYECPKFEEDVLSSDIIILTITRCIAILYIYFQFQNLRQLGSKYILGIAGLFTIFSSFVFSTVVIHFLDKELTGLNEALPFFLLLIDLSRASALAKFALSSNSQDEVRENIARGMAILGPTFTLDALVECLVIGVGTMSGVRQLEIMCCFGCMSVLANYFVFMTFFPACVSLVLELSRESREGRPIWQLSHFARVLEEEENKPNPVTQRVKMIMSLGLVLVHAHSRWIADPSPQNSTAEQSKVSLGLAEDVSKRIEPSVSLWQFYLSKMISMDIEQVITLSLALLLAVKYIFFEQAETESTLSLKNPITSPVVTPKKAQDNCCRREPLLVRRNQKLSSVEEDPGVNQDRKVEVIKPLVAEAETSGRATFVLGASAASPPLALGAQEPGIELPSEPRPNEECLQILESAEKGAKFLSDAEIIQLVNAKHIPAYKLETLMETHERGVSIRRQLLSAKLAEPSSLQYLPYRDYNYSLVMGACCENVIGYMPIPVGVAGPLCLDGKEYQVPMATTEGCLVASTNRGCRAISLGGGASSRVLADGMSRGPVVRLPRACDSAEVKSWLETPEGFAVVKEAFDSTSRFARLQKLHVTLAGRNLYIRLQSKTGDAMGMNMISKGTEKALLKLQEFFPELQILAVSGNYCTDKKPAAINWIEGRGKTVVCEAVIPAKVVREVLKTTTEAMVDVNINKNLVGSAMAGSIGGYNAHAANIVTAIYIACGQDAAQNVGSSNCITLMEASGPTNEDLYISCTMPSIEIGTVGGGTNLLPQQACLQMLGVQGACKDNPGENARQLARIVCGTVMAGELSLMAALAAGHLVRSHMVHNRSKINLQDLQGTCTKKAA
As to the kind of experiment: Inhibition of HMG-CoA reductase activity in solubilised enzyme preparations from rat liver microsomes. As to conditions: sodium salts of the dihydroxycarboxylic acids of formula II; substrate (S,R) 14C-HMG-CoA; mean of 3 parallel samples; read-out: IC₅₀. The format is biochemical, Ratten. The text has this:
Die HMG-CoA-Reduktase-Aktivität der Natriumsalze der erfindungsgemäßen Verbindungen der Formel II wurde in zwei Testsystemen bestimmt 1) Inhibierung der HMG-CoA-Reduktase-Aktivität an solubilisierten Enzympräparationen aus Ratten-Lebermikrosomen Die HMG-CoA-Reduktase-Aktivität wurde an solubilisierten Enzympräparationen aus Lebermikrosomen von Ratten gemessen, die nach Umstellung im Tag-Nacht-Rhythmus mit Cholestyramin (®Cuemid) induziert wurden. Als Substrat diente (S,R) ¹⁴C-HMG-CoA, die Konzentration von NADPH wurde während der Inkubation durch ein regenerierendes System aufrechterhalten. Die Abtrennung von ¹⁴C-Mevalonat von Substrat und anderen Produkten (z.B. ¹⁴C-HMG) erfolgte über Säulenelution, wobei das Elutionsprofil jeder Einzelprobe ermittelt wurde. Auf die ständige Mitführung von ³H-Mevalonat wurde verzichtet, weil es sich bei der Bestimmung um die Relativangabe der Hemmwirkung handelt. In einer Versuchsreiche wurden jeweils die enzymfreie Kontrolle, der enzymhaltige Normalansatz (= 100 %) und solche mit Präparatezusätzen zusammen behandelt. Jeder Einzelwert wurde als Mittelwert aus 3 Parallelproben gebildet. Die Signifikanz der Mittelwertsunterschiede zwischen präparatefreien und präparatehaltigen Proben wurde nach dem t-Test beurteilt. Nach der oben beschriebenen Methode wurden von den erfindungsgemäßen Verbindungen z.B. folgende Hemmwerte auf die HMG-CoA-Reduktase ermittelt (IC₅₀- (mol/l); molare Konzentration der Verbindung pro Liter, die für eine 50 %ige Hemmung erforderlich ist) Tabelle 1

The mark [2] stands for this setting: value outside parentheses (matches ratio of IC50 values).

Like-named read-outs stand apart in the source and are kept apart here. Some results are limits rather than exact numbers.

On to `CC(C)c1cc(C(C)(C)C)cc(-c2ccc(F)cc2)c1OC[C@@H](O)C[C@@H](O)CC(=O)O` [Beispiel 8b, 3(R),5(S)-Dihydroxy-6-[2-isopropyl-4-tert.-butyl-6-(4-fluorphenyl)-phenoxy]-hexansäure-Natriumsalz], for which, in assay [1] (setting [2]), the “relative Wirkstärke” value was below 1. Further, the IC50 at HMG-CoA-Reduktase is above 100 nM.
`CC(C)c1cc(-c2ccc(F)cc2)c(SC[C@@H](O)C[C@@H](O)CC(=O)O)c(C(C)C)c1` [Beispiel 8f, 3(R),5(S)-Dihydroxy-6-[2-(4-fluorphenyl)-4,6-diisopropylthiophenoxy]-hexansäure-Natriumsalz]: the IC50 at HMG-CoA-Reduktase was 4.8 nM.
On to `CC(C)c1cc(-c2ccccc2)cc(-c2ccc(F)cc2)c1OC[C@@H](O)C[C@@H](O)CC(=O)O` [Beispiel 8d, 3(R),5(S)-Dihydroxy-6-[2-isopropyl-4-phenyl-6-(4-fluorphenyl)-phenoxy-]-hexansäure-Natriumsalz], for which, in assay [1] (setting [2]), the “relative Wirkstärke” value turned out to be 53. For the same compound, the IC50 at HMG-CoA-Reduktase came to 23 nM.
As to `CC(C)c1cc(-c2ccc(F)cc2)cc(-c2ccc(F)cc2)c1SC[C@@H](O)C[C@@H](O)CC(=O)O` [Beispiel 8g, 3(R),5(S)-Dihydroxy-6-[2-isopropyl-4,6-bis-(4-fluorphenyl)-thiophenoxy]-hexansäure-Natriumsalz], the IC50 at HMG-CoA-Reduktase was determined as 36 nM.
Regarding `CC(C)c1cc(-c2ccc(F)cc2)cc(-c2ccc(F)cc2)c1OC[C@@H](O)C[C@@H](O)CC(=O)O` [Beispiel 8c, 3(R),5(S)-Dihydroxy-6-[2-isopropyl-4,6-bis-(4-fluorphenyl)-phenoxy]-hexansäure-Natriumsalz], the “relative Wirkstärke” value in assay [1] (setting [2]) was 56. Moreover, the IC50 on HMG-CoA-Reduktase came out at 17 nM.
Turning to `CC(C)c1cc(-c2ccc(F)cc2)c(OC[C@@H](O)C[C@@H](O)CC(=O)O)c(C(C)C)c1` [Beispiel 8a, 3(R),5(S)-Dihydroxy-6-[2-(4-fluorphenyl)-4,6-diisopropylphenoxy]-hexansäure-Natriumsalz], the IC70 in assay [1] (concentration for 70 % inhibition, sodium salts, corrected for the deviation of Mevinolin-Natrium from its mean value) was 70 nM. In addition, the “relative Wirkstärke” value in assay [1] (value in parentheses (matches ratio of IC70 values)) is 214; in assay [1] (setting [2]), 185. The IC50 at HMG-CoA-Reduktase was found to be 2.3 nM.
Regarding `CCC(C)C(=O)OC1CC(C)C=C2C=CC(C)C(CCC(O)CC(O)CC(=O)O)C21` (centres unmarked) [Mevinolin-Natriumsalz, reference compound], the IC70 in assay [1] (mean value over different cell batches, external standard) is 150 nM.
In the case of `CC(C)c1cc(C2CCCCC2)cc(-c2ccc(F)cc2)c1OC[C@@H](O)C[C@@H](O)CC(=O)O` [Beispiel 8e, 3(R),5(S)-Dihydroxy-6-[2-isopropyl-4-cyclohexyl-6-(4-fluorphenyl)-phenoxy]-hexansäure-Natriumsalz], the IC50 on HMG-CoA-Reduktase came to 5.2 nM.
